Assay results from ChEMBL document CHEMBL3039007, “Structure-based identification of OATP1B1/3 inhibitors” (Mol Pharmacol, 2013).

Legend:
[1] = target: T1, Solute carrier organic anion transporter family member 1B1 (Homo sapiens, UniProt Q9Y6L6); settings: chinese hamster, cho, 10 µM
T1 sequence (Q9Y6L6 whole entry): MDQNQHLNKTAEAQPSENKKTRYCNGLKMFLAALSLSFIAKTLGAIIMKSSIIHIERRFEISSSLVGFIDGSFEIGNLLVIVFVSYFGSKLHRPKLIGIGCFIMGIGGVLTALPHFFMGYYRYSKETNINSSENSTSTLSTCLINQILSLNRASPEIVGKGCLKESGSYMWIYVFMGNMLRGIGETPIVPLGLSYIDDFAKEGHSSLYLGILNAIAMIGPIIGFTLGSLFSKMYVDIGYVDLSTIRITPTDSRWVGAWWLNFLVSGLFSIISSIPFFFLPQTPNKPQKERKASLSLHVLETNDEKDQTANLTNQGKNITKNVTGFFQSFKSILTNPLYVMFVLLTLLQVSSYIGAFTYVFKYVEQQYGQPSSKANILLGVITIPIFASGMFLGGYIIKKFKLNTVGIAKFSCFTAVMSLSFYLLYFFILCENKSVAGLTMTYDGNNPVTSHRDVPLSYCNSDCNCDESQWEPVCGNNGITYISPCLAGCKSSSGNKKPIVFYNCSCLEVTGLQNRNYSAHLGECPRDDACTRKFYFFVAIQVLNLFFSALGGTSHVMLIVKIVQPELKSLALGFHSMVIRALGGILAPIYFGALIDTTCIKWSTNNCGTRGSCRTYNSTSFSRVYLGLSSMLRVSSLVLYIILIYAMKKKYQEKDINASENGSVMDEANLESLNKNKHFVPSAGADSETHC

[2] = target: T2, Solute carrier organic anion transporter family member 1B3 (Homo sapiens, UniProt Q9NPD5); settings: chinese hamster, cho, 10 µM
T2 sequence (Q9NPD5 whole entry): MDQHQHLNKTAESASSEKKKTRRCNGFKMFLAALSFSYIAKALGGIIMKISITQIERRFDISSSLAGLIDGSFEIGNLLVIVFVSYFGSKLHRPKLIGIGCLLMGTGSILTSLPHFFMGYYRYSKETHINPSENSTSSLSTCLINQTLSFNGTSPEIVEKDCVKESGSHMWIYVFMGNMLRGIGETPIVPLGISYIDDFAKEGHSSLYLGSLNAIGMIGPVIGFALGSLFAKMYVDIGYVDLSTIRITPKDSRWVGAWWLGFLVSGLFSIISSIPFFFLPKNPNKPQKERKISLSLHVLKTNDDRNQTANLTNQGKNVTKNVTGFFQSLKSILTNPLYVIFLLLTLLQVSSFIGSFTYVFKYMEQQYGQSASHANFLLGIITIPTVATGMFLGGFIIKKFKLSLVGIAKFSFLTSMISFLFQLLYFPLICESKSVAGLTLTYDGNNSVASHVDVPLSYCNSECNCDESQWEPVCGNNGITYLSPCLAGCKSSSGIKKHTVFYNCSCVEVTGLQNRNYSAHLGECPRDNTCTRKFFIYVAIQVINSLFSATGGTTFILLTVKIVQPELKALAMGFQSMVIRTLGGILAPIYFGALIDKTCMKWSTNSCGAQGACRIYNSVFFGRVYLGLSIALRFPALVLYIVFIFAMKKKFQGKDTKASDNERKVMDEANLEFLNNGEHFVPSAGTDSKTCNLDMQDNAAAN

| SMILES | residual activity [1] [%] | residual activity [2] [%] |
| --- | --- | --- |
| CC[C@@]1(O)C[C@H](O)c2c(cc3c(c2O)C(=O)c2c(O)ccc(O)c2C3=O)[C@H]1C(=O)OC [RUTILANTINONE] | 74.91 | 99.74 |
| CCCCSP(=O)(SCCCC)SCCCC [S,S,S,-TRIBUTYLPHOSPHOROTRITHIOATE] | 125.7 | 111.8 |
| CC(=O)O.CSC(=N)NCCC[C@H](N)C(=O)O [S-METHYL-L-THIOCITRULLINE ACETATE] | 104.5 | 107 |
| O=C1NS(=O)(=O)c2ccccc21 [SACCHARIN] | 112.4 | 110.9 |
| C=CCc1ccc2c(c1)OCO2 [SAFROLE] | 83.42 | 100.9 |
| OCC(O)Cc1ccc2c(c1)OCO2 (configuration not stated) [SAFROLGLYCOL] | 82.94 | 83.74 |
| OCc1ccccc1O[C@@H]1O[C@H](CO)[C@@H](O)[C@H](O)[C@H]1O [SALICIN] | 85.64 | 97.32 |
| OCc1ccccc1O [SALICYL ALCOHOL] | 92.07 | 117.7 |
| NC(=O)c1ccccc1O [SALICYLAMIDE] | 85.6 | 94.84 |
| COc1cc2c(cc1OC)[C@H](C)NCC2 [SALSOLIDINE] | 117.3 | 93.8 |
| COc1cc2c(cc1O)CCN[C@@H]2C [SALSOLINE] | 86.65 | 112.8 |
| C[n+]1cc2c3c(ccc2c2ccc4cc5c(cc4c21)OCO5)OCO3.O=S(=O)([O-])O [SANGUINARINE SULFATE] | 134.6 | 92.42 |
| CC1=C2[C@H]3OC(=O)[C@@H](C)[C@@H]3CC[C@@]2(C)C=CC1=O [SANTONIN] | 108.9 | 89.43 |
| COc1ccc2c(c1)OC/C(=C/c1ccc(O)c(O)c1)C2=O [SAPPANONE A 7-METHYL ETHER] | 159.5 | 107.8 |
| COc1ccc2c(c1)OC/C(=C\c1ccc(OC)c(O)c1)C2=O [SAPPANONE A DIMETHYL ETHER] | 166.6 | 136.1 |
| COc1ccc2c(c1)OC/C(=C/c1ccc(OC)c(OC)c1)C2=O [SAPPANONE A TRIMETHYL ETHER] | 112 | 100.7 |
| Cl.O=C(O)c1cn(-c2ccc(F)cc2)c2cc(N3CCNCC3)c(F)cc2c1=O [SARAFLOXACIN HYDROCHLORIDE] | 109.6 | 115.6 |
| C[C@]12CC[C@H](O)C[C@H]1CC[C@@H]1[C@@H]2[C@H](O)C[C@]2(C)[C@@H](C3=CC(=O)OC3)CC[C@]12O [SARMENTOGENIN] | 70.58 | 105.8 |
| COC1C(O)C(O[C@H]2CC[C@]3(C=O)C4C(CC[C@]3(O)C2)[C@@]2(O)CC[C@H](C3=CC(=O)OC3)[C@@]2(C)C[C@H]4OC(C)=O)OC(C)C1OC(C)=O (some centres not stated) [SARMENTOSIDE B] | 58.47 | 72.65 |
| COc1cc2ccc(=O)oc2cc1O [SCOPOLETIN] | 87.31 | 99.95 |
| Cc1ncc([N+](=O)[O-])n1CC(C)O (configuration not stated) [SECNIDAZOLE] | 132.9 | 92.29 |

| SMILES | residual activity [1] [%] | residual activity [2] [%] |
| --- | --- | --- |
| O=C1C=C2C=C[C@@H]3C[C@@]2(O1)[C@H]1CCCCN31 [SECURININE] | 92.42 | 115.4 |
| CO[C@H]1C[C@H](O[C@@H]2/C(C)=C/C[C@@H]3C[C@@H](C[C@]4(CC[C@H](C)[C@@H](C5CCCCC5)O4)O3)OC(=O)[C@@H]3C=C(C)/C(=N/O)[C@H]4OC/C(=C\C=C\[C@@H]2C)[C@]43O)O[C@@H](C)[C@@H]1O [SELAMECTIN] | 98.02 | 93.37 |
| CC1CCC(NC(=O)N(CCCl)N=O)CC1 (configuration not stated) [SEMUSTINE] | 101.5 | 100.5 |
| CC(=O)Oc1c(-c2ccccc2)oc2c(CC=C(C)C)c3c(c(OC(C)=O)c2c1=O)C=CC(C)(C)O3 [SERICETIN DIACETATE] | 106.8 | 81.94 |
| CC(C)=CCc1c2c(c(O)c3c(=O)c(O)c(-c4ccccc4)oc13)C=CC(C)(C)O2 [SERICETIN] | 89.94 | 98.26 |
| CN[C@H]1CC[C@@H](c2ccc(Cl)c(Cl)c2)c2ccccc21.Cl [SERTRALINE HYDROCHLORIDE] | 66.16 | 72.13 |
| CCNc1nc(Cl)nc(NCC)n1 [SIMAZINE] | 89.71 | 92.02 |
| COc1cc(/C=C/C(=O)O)cc(OC)c1OC [SINAPIC ACID METHYL ETHER] | 80.23 | 88.51 |
| COC1=C[C@@H]2[C@@H]3Cc4ccc(OC)c(O)c4[C@]2(CCN3C)CC1=O [SINOMENINE] | 105.5 | 68.46 |
| CC[C@H](CC[C@@H](C)[C@H]1CC[C@H]2[C@@H]3CC=C4C[C@@H](OC(C)=O)CC[C@]4(C)[C@H]3CC[C@]12C)C(C)C [SITOSTERYL ACETATE] | 97.72 | 83.78 |
| O=C([O-])CF.[Na+] [SODIUM FLUOROACETATE] | 112.7 | 104.2 |
| O=C([O-])c1ccccc1O.[Na+] [SODIUM SALICYLATE] | 55.28 | 80.83 |
| NC(=O)c1ccc[n+]([C@@H]2O[C@H](COP(=O)([O-])OP(=O)(O)OC[C@H]3O[C@@H](n4cnc5c(N)ncnc54)[C@H](OP(=O)(O)O)[C@@H]3O)[C@@H](O)[C@H]2O)c1 [SODIUM beta-NICOTINAMIDE ADENINE DINUCLEOTIDE PHOSPHATE] | 190 | 105.1 |
| C[C@@H]1CC[C@]2(NC1)O[C@H]1C[C@H]3[C@@H]4CC=C5C[C@@H](O)CC[C@]5(C)[C@H]4CC[C@]3(C)[C@H]1[C@@H]2C [SOLASODINE] | 91.83 | 113.6 |
| CC(=O)N[C@@H](CC(=O)N[C@@H](CCC(=O)O)C(=O)O)C(=O)O [SPAGLUMIC ACID] | 87.3 | 87.85 |
| COc1cc2ccc(=O)oc2c2ccoc12 [SPHONDIN] | 127 | 102.5 |
| O=C(CCCN1CCC2(CC1)C(=O)NCN2c1ccccc1)c1ccc(F)cc1 [SPIPERONE] | 168.8 | 108.9 |
| CC(=O)S[C@@H]1CC2=CC(=O)CC[C@]2(C)[C@H]2CC[C@@]3(C)[C@@H](CC[C@@]34CCC(=O)O4)[C@H]12 [SPIRONOLACTONE] | 52.45 | 103.5 |
| COc1cc(C)c2c(c1C=O)Oc1c(c(C)c(O)c3c1C(O)OC3=O)OC2=O (configuration not stated) [STICTIC ACID] | 94.3 | 32.28 |
| CC[C@H](CC[C@@H](C)[C@H]1CC[C@H]2[C@@H]3CC[C@H]4C[C@@H](O)CC[C@]4(C)[C@H]3CC[C@]12C)C(C)C [STIGMASTANOL] | 77.21 | 102.9 |
